{"source": "ChEMBL document CHEMBL2074498", "about": "“Induction of the multispecific organic anion transporter (cMoat/mrp2) gene and biliary glutathione secretion by the herbicide 2,4,5-trichlorophenoxyacetic acid in the mouse liver” (Biochem J, 1999)", "key": {"[1]": {"target": "T1, ATP-binding cassette sub-family C member 2 (Mus musculus, UniProt Q8VI47)", "T1 sequence (Q8VI47 whole entry)": "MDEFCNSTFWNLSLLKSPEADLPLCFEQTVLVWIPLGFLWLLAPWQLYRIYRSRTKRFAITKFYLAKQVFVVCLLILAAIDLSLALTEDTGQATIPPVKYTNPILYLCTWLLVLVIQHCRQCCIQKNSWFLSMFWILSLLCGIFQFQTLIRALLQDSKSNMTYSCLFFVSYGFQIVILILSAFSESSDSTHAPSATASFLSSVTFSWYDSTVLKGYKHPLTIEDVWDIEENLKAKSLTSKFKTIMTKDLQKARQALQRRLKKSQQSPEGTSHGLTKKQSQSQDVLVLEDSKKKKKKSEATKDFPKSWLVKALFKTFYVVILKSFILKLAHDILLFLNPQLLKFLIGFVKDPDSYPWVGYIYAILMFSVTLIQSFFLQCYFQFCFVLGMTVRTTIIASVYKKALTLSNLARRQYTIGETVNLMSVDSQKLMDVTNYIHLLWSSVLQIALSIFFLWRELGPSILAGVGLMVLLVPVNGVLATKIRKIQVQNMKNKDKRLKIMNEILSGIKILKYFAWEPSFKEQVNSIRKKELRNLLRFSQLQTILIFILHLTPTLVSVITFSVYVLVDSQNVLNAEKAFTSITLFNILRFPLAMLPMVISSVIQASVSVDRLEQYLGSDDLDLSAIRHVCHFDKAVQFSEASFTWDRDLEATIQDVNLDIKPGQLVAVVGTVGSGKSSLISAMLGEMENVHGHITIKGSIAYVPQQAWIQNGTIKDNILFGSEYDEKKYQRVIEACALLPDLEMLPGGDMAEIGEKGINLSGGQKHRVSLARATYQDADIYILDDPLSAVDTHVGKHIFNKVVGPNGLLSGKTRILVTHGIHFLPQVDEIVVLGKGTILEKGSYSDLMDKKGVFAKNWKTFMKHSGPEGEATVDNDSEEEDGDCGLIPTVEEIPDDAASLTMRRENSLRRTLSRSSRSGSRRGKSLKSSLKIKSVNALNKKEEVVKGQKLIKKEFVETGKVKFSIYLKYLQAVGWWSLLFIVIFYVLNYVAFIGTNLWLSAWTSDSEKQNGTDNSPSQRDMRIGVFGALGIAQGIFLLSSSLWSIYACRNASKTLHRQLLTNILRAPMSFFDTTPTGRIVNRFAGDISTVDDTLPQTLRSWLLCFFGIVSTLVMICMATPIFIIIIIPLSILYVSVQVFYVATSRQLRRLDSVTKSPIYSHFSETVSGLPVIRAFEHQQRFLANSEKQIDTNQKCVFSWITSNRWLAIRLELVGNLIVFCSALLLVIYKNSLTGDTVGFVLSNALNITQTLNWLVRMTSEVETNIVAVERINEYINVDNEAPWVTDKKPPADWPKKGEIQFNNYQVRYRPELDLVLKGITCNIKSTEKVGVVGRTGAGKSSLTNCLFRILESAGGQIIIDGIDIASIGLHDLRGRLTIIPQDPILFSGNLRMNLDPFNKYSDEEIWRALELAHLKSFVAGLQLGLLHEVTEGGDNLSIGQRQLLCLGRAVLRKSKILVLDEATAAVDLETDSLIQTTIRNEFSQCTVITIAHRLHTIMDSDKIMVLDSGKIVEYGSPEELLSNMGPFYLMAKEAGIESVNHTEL", "assay": "TP_TRANSPORTER: Northern blot in vivo, liver of CF I mouse", "type": "functional, organism-based"}, "[2]": {"target": "T1, ATP-binding cassette sub-family C member 2", "assay": "TP_TRANSPORTER: Western in vivo, liver of CF I mouse", "type": "functional, organism-based"}}}
{"compound": "O=C(O)COc1cc(Cl)c(Cl)cc1Cl", "note": "[2,4,5-TRICHLOROPHENOXYACETIC ACID]", "values": [{"measurement": "Activity", "setting": "[1]", "result": "inducer [+]"}, {"measurement": "Activity", "setting": "[2]", "result": "inducer [+]"}]}
